Each structure is given as a SMILES string.

The target of the first assay is D2 receptor (Homo sapiens, UniProt P14416). The assay is described as follows: [3H]Thymidine uptake assay for D2 intrinsic activity. Format: cell-based. As to conditions: Table 1; test compound 1 μM; 1 μM Quinpirole = 100% intrinsic activity.
D2 receptor, sequence (P14416 whole entry): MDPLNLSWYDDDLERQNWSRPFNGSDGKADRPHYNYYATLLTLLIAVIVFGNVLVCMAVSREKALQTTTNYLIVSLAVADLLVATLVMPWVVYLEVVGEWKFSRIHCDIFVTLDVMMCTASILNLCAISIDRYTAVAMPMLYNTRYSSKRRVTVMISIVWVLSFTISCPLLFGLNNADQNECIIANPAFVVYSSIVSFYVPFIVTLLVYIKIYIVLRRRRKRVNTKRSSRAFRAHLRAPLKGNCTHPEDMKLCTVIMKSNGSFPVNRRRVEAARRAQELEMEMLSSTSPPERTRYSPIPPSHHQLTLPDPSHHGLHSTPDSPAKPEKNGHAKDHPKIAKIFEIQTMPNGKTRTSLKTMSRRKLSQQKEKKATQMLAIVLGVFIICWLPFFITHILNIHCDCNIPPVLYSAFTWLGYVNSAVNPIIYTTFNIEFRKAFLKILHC
Take `COc1cccc(N2CCN(CCCCOc3ccc4ccc(=O)[nH]c4n3)CC2)c1Cl` [Example B18, 7-{4-[4-(2-Chloro-3-methoxy-phenyl)-piperazin-1-yl]-butoxy}-1H-[1,8]naphthyridin-2-one]: the Emax at 1 µM turned out to be 32%.
On the same count and under the same terms, next, `O=c1ccc2ccc(OCCCCN3CCN(c4cccc(Cl)c4F)CC3)nc2[nH]1` [Example B22, 7-{4-[4-(3-Chloro-2-fluoro-phenyl)-piperazin-1-yl]-butoxy}-1H-[1,8]naphthyridin-2-one]: 36%; `O=c1ccc2ccc(OCCCCN3CCN(c4ccc(F)cc4Cl)CC3)nc2[nH]1` [Example B23, 7-{4-[4-(2-Chloro-4-fluoro-phenyl)-piperazin-1-yl]-butoxy}-1H-[1,8]naphthyridin-2-one]: 15%.
Same read-out and setting: with `O=c1ccc2ccc(OCCCCN3CCN(c4ccc(F)c(Cl)c4Cl)CC3)nc2[nH]1` [Example B24, 7-{4-[4-(2,3-Dichloro-4-fluoro-phenyl)-piperazin-1-yl]-butoxy}-1H-[1,8]naphthyridin-2-one] the figure was 10%; with `O=c1ccc2ccc(OCCCCN3CCN(c4ccccc4-c4ccccc4)CC3)nc2[nH]1` [Example B26, 7-[4-(4-Biphenyl-2-yl-piperazin-1-yl)-butoxy]-1H-[1,8]naphthyridin-2-one], 23%; with `COc1cccc(N2CCN(CCCCOc3ccc4ccc(=O)[nH]c4n3)CC2)c1C` [Example B27, 7-{4-[4-(3-Methoxy-2-methyl-phenyl)-piperazin-1-yl]-butoxy}-1H-[1,8]naphthyridin-2-one], 47%.
The same measure, in the same setting: next, `O=c1ccc2ccc(OCCCCN3CCN(c4cccc(F)c4Cl)CC3)nc2[nH]1` [Example B28, 7-{4-[4-(2-Chloro-3-fluoro-phenyl)-piperazin-1-yl]-butoxy}-1H-[1,8]naphthyridin-2-one]: 31%.
Take `O=c1ccc2ccc(OCCCCN3CCN(c4cccc(C5CC5)n4)CC3)nc2[nH]1` [Example B29, 7-{4-[4-(6-Cyclopropyl-pyridin-2-yl)-piperazin-1-yl]-butoxy}-1H-[1,8]naphthyridin-2-one]: the Emax at 1 µM amounted to 32%.
Still for that read-out and setting: with `O=c1ccc2ccc(OCCCCN3CCN(c4ncccn4)CC3)nc2[nH]1` [Example B30, 7-[4-(4-Pyrimidin-2-yl-piperazin-1-yl)-butoxy]-1H-[1,8]naphthyridin-2-one] the figure was 83%; with `COc1ccnc(N2CCN(CCCCOc3ccc4ccc(=O)[nH]c4n3)CC2)n1` [Example B31, 7-{4-[4-(4-Methoxy-pyrimidin-2-yl)-piperazin-1-yl]-butoxy}-1H-[1,8]naphthyridin-2-one], 76%; with `O=c1ccc2ccc(OCCCCN3CCN(c4cccc5c4CCC5)CC3)nc2[nH]1` [Example B32, 7-[4-(4-Indan-4-yl-piperazin-1-yl)-butoxy]-1H-[1,8]naphthyridin-2-one], 19%.
Turning to `O=c1ccc2ccc(OCCCCN3CCN(c4cccc5c4CCCC5)CC3)nc2[nH]1` [Example B33, 7-{4-[4-(5,6,7,8-Tetrahydro-naphthalen-1-yl)-piperazin-1-yl]-butoxy}-1H-[1,8]naphthyridin-2-one], the Emax at 1 µM came to 26%.
The same measure, in the same setting: with `O=C1CCCc2cccc(N3CCN(CCCCOc4ccc5ccc(=O)[nH]c5n4)CC3)c21` [Example B35, 7-{4-[4-(8-Oxo-5,6,7,8-tetrahydro-naphthalen-1-yl)-piperazin-1-yl]-butoxy}-1H-[1,8]naphthyridin-2-one] the figure was 20%; with `CC1(C)CCc2cccc(N3CCN(CCCCOc4ccc5ccc(=O)[nH]c5n4)CC3)c2C1=O` [Example B36, 7-{4-[4-(7,7-Dimethyl-8-oxo-5,6,7,8-tetrahydro-naphthalen-1-yl)-piperazin-1-yl]-butoxy}-1H-[1,8]naphthyridin-2-one], 39%; with `O=C1CCc2cccc(N3CCN(CCCCOc4ccc5ccc(=O)[nH]c5n4)CC3)c2C1` [Example B40, 7-{4-[4-(7-Oxo-5,6,7,8-tetrahydro-naphthalen-1-yl)-piperazin-1-yl]-butoxy}-1H-[1,8]naphthyridin-2-one], 36%.
Same read-out and setting: with `O=c1ccc2ccc(OCCCCN3CCN(c4cccc5c4CCCC5(F)F)CC3)nc2[nH]1` [Example B43, 7-{4-[4-(5,5-Difluoro-5 6,7,8-tetrahydro-naphthalen-1-yl)-piperazin-1-yl]-butoxy}-1H-[1,8]naphthyridin-2-one] the figure was 18%.
Same read-out and setting: next, `O=C1CCc2cccc(N3CCN(CCCCOc4ccc5ccc(=O)[nH]c5n4)CC3)c21` [Example B44, 7-{4-[4-(3-Oxo-indan-4-yl)-piperazin-1-yl]-butoxy}-1H-[1,8]naphthyridin-2-one]: 27%.
For `O=c1ccc2ccc(OCCCCN3CCN(c4cccc5c4CC(F)(F)C5)CC3)nc2[nH]1` [Example B46, 7-{4-[4-(2,2-Difluoro-indan-4-yl)-piperazin-1-yl]-butoxy}-1H-[1,8]naphthyridin-2-one], the Emax at 1 µM was 29%.
The molecule `O=c1ccc2ccc(OCCCCN3CCN(c4cccc5ccccc45)CC3)nc2[nH]1` [Example B47, 7-[4-(4-Naphthalen-1-yl-piperazin-1-yl)-butoxy]-1H-[1,8]naphthyridin-2-one] had an Emax at 1 µM of 44%.
`O=c1ccc2ccc(OCCCCN3CCN(c4cccc5cccc(F)c45)CC3)nc2[nH]1` [Example B50, 7-{4-[4-(8-Fluoro-naphthalen-1-yl)-piperazin-1-yl]-butoxy}-1H-[1,8]naphthyridin-2-one] came in with an Emax at 1 µM of 51%.

Still in this assay, the particulars now being: Table 2; test compound 1 μM; 1 μM Quinpirole = 100% intrinsic activity.
Molecule `O=c1ccc2ccc(OCCCCN3CCN(c4cccc5c4OCCCO5)CC3)nc2[nH]1` [Example B20′, 7-{4-[4-(3,4-Dihydro-2H-benzo[b][1,4]dioxepin-6-yl)-piperazin-1-yl]-butoxy}-1H-[1,8]naphthyridin-2-one] yielded an Emax at 1 µM of 16%.
Regarding `O=c1ccc2ccc(OCCCCN3CCN(c4cccc5cccnc45)CC3)nc2[nH]1` [Example B21′, 7-[4-(4-Quinolin-8-yl-piperazin-1-yl)-butoxy]-1H-[1,8]naphthyridin-2-one], the maximum response (Emax) at 1 µM is 18%.
On to `O=c1ccc2ccc(OCCCCN3CCN(c4cccc5ncccc45)CC3)nc2[nH]1` [Example B22′, 7-[4-(4-Quinolin-5-yl-piperazin-1-yl)-butoxy]-1H-[1,8]naphthyridin-2-one], for which the Emax at 1 µM stood at 12%.
Still for that read-out and setting: with `O=c1ccc2ccc(OCCCCN3CCN(c4cccc5nccnc45)CC3)nc2[nH]1` [Example B23′, 7-[4-(4-Quinoxalin-5-yl-piperazin-1-yl)-butoxy]-1H-[1,8]naphthyridin-2-one] the figure was 21%.
Molecule `O=c1ccc2ccc(OCCCCN3CCN(c4cccc5[nH]ccc45)CC3)nc2[nH]1` [Example B24′, 7-{4-[4-(1H-Indol-4-yl)-piperazin-1-yl]-butoxy}-1H-[1,8]naphthyridin-2-one] yielded an Emax at 1 µM of 42%.
On the same count and under the same terms, with `O=c1ccc2ccc(OCCCCN3CCN(c4cccc5sccc45)CC3)nc2[nH]1` [Example B25′, 7-[4-(4-Benzo[b]thiophen-4-yl-piperazin-1-yl)-butoxy]-1H-[1,8]naphthyridin-2-one] the figure was 21%; with `O=c1ccc2ccc(OCCCCN3CCN(c4cccc5ccoc45)CC3)nc2[nH]1` [Example B26′, 7-[4-(4-Benzofuran-7-yl-piperazin-1-yl)-butoxy]-1H-[1,8]naphthyridin-2-one], 26%.
On the same count and under the same terms, with `CC(=O)N1CCCc2c(N3CCN(CCCCOc4ccc5ccc(=O)[nH]c5n4)CC3)cccc21` [Example B27′, 7-{4-[4-(1-Acetyl-1,2,3,4-tetrahydro-quinolin-5-yl)-piperazin-1-yl]-butoxy}-1H-[1,8]naphthyridin-2-one] the figure was 34%; with `CN1CCCc2c1cccc2N1CCN(CCCCOc2ccc3ccc(=O)[nH]c3n2)CC1` [Example B28′, 7-{4-[4-(1-Methyl-1,2,3,4-tetrahydro-quinolin-5-yl)-piperazin-1-yl]-butoxy}-1H-[1,8]naphthyridin-2-one], 44%; with `CCN1CCCc2c1cccc2N1CCN(CCCCOc2ccc3ccc(=O)[nH]c3n2)CC1` [Example B29′, 7-{4-[4-(1-Ethyl-1,2,3,4-tetrahydro-quinolin-5-yl)-piperazin-1-yl]-butoxy}-1H-[1,8]naphthyridin-2-one], 26%.
As to `COc1ccc2cccc(N3CCN(CCCCOc4ccc5ccc(=O)[nH]c5n4)CC3)c2n1` [Example B30′, 7-{4-[4-(2-Methoxy-quinolin-8-yl)-piperazin-1-yl]-butoxy}-1H-[1,8]naphthyridin-2-one], the Emax at 1 µM stood at 42%.
Still for that read-out and setting: with `O=c1ccc2ccc(OCCCCN3CCN(c4cccc5ncc(F)cc45)CC3)nc2[nH]1` [Example B34′, 7-{4-[4-(3-Fluoro-quinolin-5-yl)-piperazin-1-yl]-butoxy}-1H-[1,8]naphthyridin-2-one] the figure was 35%; with `O=c1ccc2ccc(OCCCCN3CCN(c4cccc5ccc(=O)[nH]c45)CC3)nc2[nH]1` [Example B36′, 7-{4-[4-(2-Oxo-1,2-dihydro-quinolin-8-yl)-piperazin-1-yl]-butoxy}-1H-[1,8]naphthyridin-2-one], 36%; with `O=C1CCc2cccc(N3CCN(CCCCOc4ccc5ccc(=O)[nH]c5n4)CC3)c2N1` [Example B37′, 7-{4-[4-(2-Oxo-1,2,3,4-tetrahydro-quinolin-8-yl)-piperazin-1-yl]-butoxy}-1H-[1,8]naphthyridin-2-one], 39%.
Still for that read-out and setting: next, `CN1C(=O)CCc2cccc(N3CCN(CCCCOc4ccc5ccc(=O)[nH]c5n4)CC3)c21` [Example B38′, 7-{4-[4-(1-Methyl-2-oxo-1,2,3,4-tetrahydro-quinolin-8-yl)-piperazin-1-yl]-butoxy}-1H-[1,8]naphthyridin-2-one]: 46%; `O=c1ccc2ccc(OCCCCN3CCN(c4cccc5nonc45)CC3)nc2[nH]1` [Example B39′, 7-[4-(4-Benzo[1,2,5]oxadiazol-4-yl-piperazin-1-yl)-butoxy]-1H-[1,8]naphthyridin-2-one]: 29%.
As to `O=c1ccc2ccc(OCCCCN3CCN(c4cccc5nsnc45)CC3)nc2[nH]1` [Example B40′, 7-[4-(4-Benzo[1,2,5]thiadiazol-4-yl-piperazin-1-yl)-butoxy]-1H-[1,8]naphthyridin-2-one], the Emax at 1 µM was determined as 49%.

Broadly, the Emax is the greatest response seen or fitted, relative to the assay's reference.

(Values after patent US7160888B2, “[1,8]naphthyridin-2-ones and related compounds for the treatment of schizophrenia” (Warner Lambert Company LLC, priority 2003, dated 2007).)
